These results are taken from patent US20230303564A1, “PYRIMIDINE RING COMPOUND” (MEDSHINE DISCOVERY INC., priority 2020, published 2023).

In test [1] the target is CDK2/CyclinA2 (Homo sapiens (Human), UniProt P24941). As to the kind of experiment: CDK2/CyclinA2 enzyme activity test (ADP-Glo). The test is classed as biochemical. The conditions noted are these: 50 μM ATP, 25° C. 60 minutes, read-out: CDK2/Cyclin A2 IC50. The method, then: CDK2/CyclinA2 Enzyme Reaction System
(§1) Enzymes, substrates, ATP, and inhibitors were diluted by kinase buffer in the kit. The compounds to be tested were diluted 5-fold with a multi-channel pipette to the eighth concentration, that is, from 50 μM to 0.65 nM, the concentration of DMSO was 5%, and a double-hole experiment was set up. 1 μL of each concentration gradient of inhibitors, 2 μL of CDK2/CyclinA2 enzyme (1.6 ng), 2 μL mixture of substrate and ATP (50 μM ATP, 0.1 μg/μL substrate) were added to the microplates, and the final concentration gradient of the compound was 10 μM to 0.13 nM. The reaction system was reacted at 25° C. for 60 minutes. After the reaction, 5 μL of ADP-Glo reagent was added to each well, the reaction was carried out at 25° C. for 40 minutes, after the reaction was completed, 10 μL of kinase detection reagent was added to each well, the reaction was carried out at 25° C. for 30 minutes, the multiple label analyzer was used to read the chemiluminescence with an integration time of 0.5 seconds
(§2) The equation (Sample−Min)/(Max−Min)*100% was used to convert the raw data into inhibition rate, and the value of IC50 can be obtained by curve fitting with four parameters (obtained by log (inhibitor) vs. response-Variable slope mode in GraphPad Prism). The enzymatic inhibitory activity of the compounds of the present disclosure on CDK1/CyclinB1, CDK2/CyclinA2, CDK2/CyclinE1, CDK4/CyclinD1, CDK6/CyclinD1, CDK7/CyclinH/MAT1, CDK9/CyclinT1 was provided in Table 1.

For test [2], the target named is CDK4/CyclinD1 (Homo sapiens (Human), UniProt P11802). As to the kind of experiment: CDK4/CyclinD1 enzyme activity test (LANCE Ultra TR-FRET). The format is biochemical. The following applies: 350 μM ATP, 25° C. 120 minutes, read-out: CDK4/Cyclin D1 IC50. The method, then: CDK4/CyclinD1 Enzyme Reaction System
(§3) Preparation of Kinase Buffer:
(§4) The composition of the buffer: 50 mM of hydroxyethylpiperazine ethanesulfonic acid solution at pH 7.5, 1 mM of ethylenediaminetetraacetic acid, 10 mM of magnesium chloride, 0.01% Brij-35, and 2 mM of dithiothreitol.
(§5) Enzymes, substrate LANCE Ultra ULight™-4E-BP-1(Thr37146) Peptide, ATP, and inhibitors were diluted by kinase buffer.
(§6) The compounds to be tested were diluted 5-fold with a multi-channel pipette to the eighth concentration, that is, from 40 μM to 0.512 nM, the concentration of DMSO was 4%, and a double-hole experiment was set up. […] The reaction system was reacted at 25° C. for 120 minutes. After the reaction, 5 μL mixture of EDTA and 2× LANCE™ Detection Buffer (1:1) were added to each well, the reaction was carried out at 25° C. for 5 minutes, after the reaction was completed, 5 μL of LANCE Ultra Eu-anti-P-4E-BP1(Thr37MS) (4 nM) was added to each well, the reaction was carried out at 25° C. for 60 minutes, the reaction signal was detected by Nivo instrument according to the principle of time-resolved fluorescence resonance energy transfer.
as §2

Test [3] deals with CDK6/CyclinD1 (Homo sapiens (Human), UniProt Q00534). The test is described as follows: CDK6/CyclinD1 enzyme activity test (LANCE Ultra TR-FRET). The conditions noted are these: 250 μM ATP, 25° C. 120 minutes, read-out: CDK6/Cyclin D1 IC50. The format is biochemical. The method, then: CDK6/CyclinD1 Enzyme Reaction System
as §3, §4, §5, §6, §2

Test [4] concerns the target CDK9/CyclinT1 (Homo sapiens (Human), UniProt P50750). As to the kind of experiment: CDK9/CyclinT1 enzyme activity test (ADP-Glo). The conditions noted are these: 100 μM ATP, 25° C. 120 minutes, read-out: CDK 9/Cyclin T1 IC50. The format is biochemical. As for the experimental part: CDK9/CyclinT1 Enzyme Reaction System
as §1, with “of CDK9/CyclinT1” for “of CDK2/CyclinA2”, “enzyme (4” for “enzyme (1.6”, “ATP (100” for “ATP (50”, “ATP, 0.2” for “ATP, 0.1”, “for 120” for “for 60”, “0.5 seconds.” for “0.5 seconds”
as §2

For test [5], the system named is OVCAR-3 cells. The test is described as follows: Cell activity test, anti-proliferation (CellTiter Glo), OVCAR-3. The test is classed as cell-based, human. The following applies: OVCAR-3, 7 days of culture. The method, then:
2) Day 1: Laying Cell Plates
(6) 0.7 mL of cell suspension was pipetted into the counting cup, the cells were counted on ViCell XR, and the cell suspension was diluted separately with culture medium to the required cell concentration for laying cell plates: 1000/30 ul.
(7) Microplates (2 plates) were required, 100 uL of phosphate buffered saline was added to the peripheral wells of the 384-well plate, 30 uL of cell suspension was added to the other wells, and the cell plate was placed into incubator for culture.
(1) Compound preparation: the stock solution of the compound to be tested was 10 mM.
(2) The compound to be tested was diluted 3 times with DMSO for 10 gradients.
(2) The compound to be tested was diluted with culture medium, and the highest final concentration was 10 μM.
(4) 10 μL of the compound was pipetted into the 384-well plate, and then the cell plate was placed back into the incubator for culture.
4) Adding CTG and Reading the Plate
(1) After 7 days of culture, 50 ul CellTiter Glo was added to the cell plate, shaken for 10 minutes in the dark, and left at room temperature for 5 minutes.
(2) The plate was read on Envision with the program: US LUM 384 (CPS). The experiment was originally stored in the personal disk:
1. The mean and standard deviation of 0% inhibition (DMSO row, ZPE) and 100% inhibition (PBS row, HPE) were calculated;
2. Inhibition rate (%)=(1−(sample value-average value of 100% inhibition)/(average value of 0% inhibition-average value of 100% inhibition))*100;
3. The curve was fitted by GraphPad 8.0 software;

The target in test [6] is CDK2/CyclinE1 (Homo sapiens (Human), UniProt P24941). The test is described as follows: CDK2/CyclinE1 enzyme activity test (ADP-Glo). The format is biochemical. The conditions noted are these: 150 μM ATP, 25° C. 60 minutes, read-out: CDK2/Cyclin E1 IC50. The method, then: CDK2/CyclinE1 Enzyme Reaction System
as §1, with “CDK2/CyclinE1” for “CDK2/CyclinA2”, “(2” for “(1.6”, “(150” for “(50”, “seconds.” for “seconds”
as §2

Test [7] has as its target CDK1/CyclinB1 (Homo sapiens (Human), UniProt P06493). As to the kind of experiment: CDK1/CyclinB1 enzyme activity test (ADP-Glo). The format is biochemical. The conditions noted are these: 25 μM ATP, 25° C. 120 minutes, read-out: CDK1/Cyclin B IC50. As for the experimental part:
CDK1/CyclinB1 Enzyme Reaction System
as §1, with “CDK1/CyclinB1” for “CDK2/CyclinA2”, “(12.5” for “(1.6”, “(25” for “(50”, “adenosine triphosphate, 0.2” for “ATP, 0.1”, “120” for “60”, “seconds.” for “seconds”
as §2

For test [8], the system named is human ovarian cancer OVCAR-3 cells subcutaneous xenograft tumor. As to the kind of experiment: In vivo efficacy study, OVCAR-3 subcutaneous xenograft tumor BALB/c nude mouse model. As for the experimental part: In vivo efficacy study of human ovarian cancer OVCAR-3 cells subcutaneous xenograft tumor BALB/c nude mouse model
Cell culture: Human ovarian cancer OVCAR-3 cells were monolayer cultured in vitro, the culture conditions were 10% fetal bovine serum, 100 U/mL Penicillin and 100 μg/mL Streptomycin were added in RPMI 1640 medium, cultured at 37° C. 5% CO2 incubator. Conventional digestion with trypsin-EDTA was performed for passage. When the cell saturation was 80%/90% and the number reached the required level, the cells were collected, counted, and inoculated.
Animals: BALB/c nude mice, female, 6-8 weeks old, weighed 18-22 grams. A total of 95 (42+ additional 53) animals were needed, provided by the Experimental Animal Management Department of Shanghai Institute of Family Planning Sciences (formerly Shanghai Sipulbichem).
Tumor inoculation: 0.2 mL (1×10^7) OVCAR-3 cells (with matrix glue, volume ratio of 1:1) were subcutaneously inoculated on the right back of each mouse, and the mice were grouped administrated when the average tumor volume reached about 150 mm^3.
Dosage and frequency of administration: Day 0 to Day 7, 10 mg/kg; Day 7 to Day 14, 10 mg/kg; Day 14 to Day 21, 30 mg/kg;
Experimental index: The experimental index was used to examine whether tumor growth was inhibited, delayed or cured. Tumor diameters were measured with vernier calipers twice a week. The calculation formula of tumor volume was: V=0.5a×b^2, wherein a and b represented the long and short diameters of the tumor, respectively.

A value given as a limit tells only on which side of the number the result lay.

Sequence of CDK6/CyclinD1 (Q00534 whole entry): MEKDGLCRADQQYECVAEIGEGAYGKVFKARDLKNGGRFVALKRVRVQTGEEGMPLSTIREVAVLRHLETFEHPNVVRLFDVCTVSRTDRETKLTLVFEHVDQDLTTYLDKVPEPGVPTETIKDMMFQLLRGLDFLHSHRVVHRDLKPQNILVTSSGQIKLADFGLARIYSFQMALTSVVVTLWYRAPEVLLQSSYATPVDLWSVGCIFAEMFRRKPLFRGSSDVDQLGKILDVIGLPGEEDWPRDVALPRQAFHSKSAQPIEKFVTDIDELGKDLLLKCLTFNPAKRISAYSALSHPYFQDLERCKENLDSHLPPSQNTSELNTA
Sequence of CDK6/CyclinD1 (P24385 whole entry partner): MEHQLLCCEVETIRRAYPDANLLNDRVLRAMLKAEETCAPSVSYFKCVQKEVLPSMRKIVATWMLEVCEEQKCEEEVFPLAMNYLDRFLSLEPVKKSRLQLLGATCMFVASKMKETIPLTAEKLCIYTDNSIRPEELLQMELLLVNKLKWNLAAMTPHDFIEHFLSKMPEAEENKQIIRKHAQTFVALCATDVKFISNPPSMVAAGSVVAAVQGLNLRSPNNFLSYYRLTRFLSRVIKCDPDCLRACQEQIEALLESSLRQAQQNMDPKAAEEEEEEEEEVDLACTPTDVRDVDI
Sequence of CDK4/CyclinD1 (P11802 whole entry): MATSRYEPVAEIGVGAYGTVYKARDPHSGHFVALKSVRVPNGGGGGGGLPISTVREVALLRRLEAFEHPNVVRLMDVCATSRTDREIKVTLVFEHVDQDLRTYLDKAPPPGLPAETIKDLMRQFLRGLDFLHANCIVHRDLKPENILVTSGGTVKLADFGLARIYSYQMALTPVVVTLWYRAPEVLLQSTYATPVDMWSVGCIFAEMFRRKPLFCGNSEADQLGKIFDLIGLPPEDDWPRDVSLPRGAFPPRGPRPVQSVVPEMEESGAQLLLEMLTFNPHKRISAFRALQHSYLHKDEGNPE
Sequence of CDK4/CyclinD1 (P24385 whole entry partner): as the sequence (P24385 whole entry partner) above
Sequence of CDK1/CyclinB1 (P06493 whole entry): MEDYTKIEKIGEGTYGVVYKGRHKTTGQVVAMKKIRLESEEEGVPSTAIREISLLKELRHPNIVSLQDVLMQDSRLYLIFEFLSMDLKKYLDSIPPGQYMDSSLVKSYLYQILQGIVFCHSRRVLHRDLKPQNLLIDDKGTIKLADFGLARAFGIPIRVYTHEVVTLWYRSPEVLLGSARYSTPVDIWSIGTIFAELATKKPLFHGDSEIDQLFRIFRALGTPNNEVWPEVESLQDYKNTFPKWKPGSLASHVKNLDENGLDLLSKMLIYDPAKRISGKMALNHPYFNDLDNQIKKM
Sequence of CDK1/CyclinB1 (P14635 whole entry partner): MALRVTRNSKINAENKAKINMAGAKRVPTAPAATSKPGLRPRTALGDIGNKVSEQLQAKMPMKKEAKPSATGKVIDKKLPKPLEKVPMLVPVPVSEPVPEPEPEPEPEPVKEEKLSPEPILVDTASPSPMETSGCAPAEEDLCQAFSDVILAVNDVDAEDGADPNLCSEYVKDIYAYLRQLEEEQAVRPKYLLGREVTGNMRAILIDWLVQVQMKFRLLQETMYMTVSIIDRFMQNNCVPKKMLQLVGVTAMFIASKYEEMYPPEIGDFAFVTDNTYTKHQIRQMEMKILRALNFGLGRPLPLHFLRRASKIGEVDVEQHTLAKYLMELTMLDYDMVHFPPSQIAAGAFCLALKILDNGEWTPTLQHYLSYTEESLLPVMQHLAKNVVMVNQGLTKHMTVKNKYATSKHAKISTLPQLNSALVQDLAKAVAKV
Sequence of CDK9/CyclinT1 (P50750 whole entry): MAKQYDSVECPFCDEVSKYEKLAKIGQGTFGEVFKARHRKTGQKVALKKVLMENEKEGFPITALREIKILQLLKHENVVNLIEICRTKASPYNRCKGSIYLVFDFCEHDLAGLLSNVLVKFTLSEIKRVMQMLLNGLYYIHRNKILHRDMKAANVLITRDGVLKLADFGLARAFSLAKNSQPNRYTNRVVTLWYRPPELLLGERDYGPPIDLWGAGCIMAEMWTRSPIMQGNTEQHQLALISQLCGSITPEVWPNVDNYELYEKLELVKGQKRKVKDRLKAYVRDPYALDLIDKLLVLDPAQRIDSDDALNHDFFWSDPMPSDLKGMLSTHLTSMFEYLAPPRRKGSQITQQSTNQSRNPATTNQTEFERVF
Sequence of CDK9/CyclinT1 (O60563 whole entry partner): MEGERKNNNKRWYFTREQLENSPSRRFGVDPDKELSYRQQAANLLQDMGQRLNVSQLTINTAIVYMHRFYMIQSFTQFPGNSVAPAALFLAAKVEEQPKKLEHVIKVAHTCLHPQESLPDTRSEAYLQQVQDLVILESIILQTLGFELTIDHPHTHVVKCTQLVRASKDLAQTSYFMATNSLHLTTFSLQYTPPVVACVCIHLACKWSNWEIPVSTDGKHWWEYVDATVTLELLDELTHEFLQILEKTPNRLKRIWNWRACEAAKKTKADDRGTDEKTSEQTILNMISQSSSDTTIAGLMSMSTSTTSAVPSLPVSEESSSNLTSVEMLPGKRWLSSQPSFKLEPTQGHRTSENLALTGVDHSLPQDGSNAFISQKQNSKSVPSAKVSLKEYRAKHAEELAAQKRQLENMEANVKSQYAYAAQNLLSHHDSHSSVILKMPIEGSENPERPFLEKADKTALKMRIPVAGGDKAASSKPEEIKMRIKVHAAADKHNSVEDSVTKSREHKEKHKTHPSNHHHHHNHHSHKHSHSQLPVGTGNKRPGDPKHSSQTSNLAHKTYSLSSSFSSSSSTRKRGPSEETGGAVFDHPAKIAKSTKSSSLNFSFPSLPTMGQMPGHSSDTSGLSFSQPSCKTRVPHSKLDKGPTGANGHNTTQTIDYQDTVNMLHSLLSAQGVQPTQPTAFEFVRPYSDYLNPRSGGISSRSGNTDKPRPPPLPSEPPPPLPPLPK

As for `Cc1cc2cnc(NC3CCN(S(C)(=O)=O)CC3)nc2c(N[C@@H]2CCC[C@@]2(C)O)n1` (racemic) [Compound 6], the results for the IC50 in test [1], in test [2] and in test [3] were 0.52 nM, 1.08 nM and 1.56 nM, respectively.
For the compound `CS(=O)(=O)N1CCC(Nc2ncc3cc(C(F)F)nc(N[C@H]4CCCC4(F)F)c3n2)CC1` (single isomer, unassigned) [Compound 21], the IC50 in test [4] was 15 nM; in test [5], 15 nM; in test [6], 4.32 nM; in test [7], 8.48 nM; in test [2], 0.46 nM; in test [3] it was 0.34 nM.
As to `C[C@@]1(O)CCC[C@H]1Nc1nccc2cnc(NC3CCN(S(C)(=O)=O)CC3)nc12` [Compound 1], the IC50 is 1.67 nM in test [6]; 0.56 nM in test [1]; 2.72 nM in test [7]; 3.9 nM in test [2]; 2.28 nM in test [3].
As for `CS(=O)(=O)N1CCC(Nc2ncc3ccnc(NC4CCCC4)c3n2)CC1` [Compound 4], the IC50 is 0.27 nM in test [1], 1.5 nM in test [2] and 1.49 nM in test [3].
`C[C@@]1(O)CCC[C@H]1Nc1nc(C(F)F)cc2cnc(NC3CCN(S(C)(=O)=O)CC3)nc12` [Compound 14]: the IC50 amounted to 4.15 nM in test [6], 1.25 nM in test [1], 2.59 nM in test [2] and 1.69 nM in test [3].
In the case of `C[C@@H]1CCCN1c1nc(C(F)F)cc2cnc(NC3CCN(S(C)(=O)=O)CC3)nc12` [Compound 25], in test [8] (Day 0 (at grouping), OVCAR-3 xenograft, BALB/c nude mice), the “Tumor volume (Day 0)” value is reported as 151 mm^3. Moreover, the “Tumor volume (Day 7)” value in test [8] (Day 7, 10 mg/kg from day 0 to day 7) was 226 mm^3. In addition, in test [8] (Day 14, 10 mg/kg from day 0 to day 14), the “Tumor volume (Day 14)” value was 371 mm^3. Moreover, the “Tumor volume (Day 21)” value in test [8] (Day 21, 10 mg/kg day 0 to day 14, 30 mg/kg from day 14 to day 21) amounted to 611 mm^3. Further, the IC50 in test [5] was under 1 nM; in test [6], 4.02 nM; in test [3], 0.46 nM.
